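96-well plates; 48 h exposure; 5 concentrations. Endpoints by linear interpolation between flanking doses. Not reached: highest tested concentration assigned. GI50 = concentration required for 50% inhibition of growth.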 Active and inactive are the calls of the source. Cut-off read from the data, not from the text of the source: active = GI50 up to about 1.1 µM and inactive = higher.
Tests used:
Assay in all cases: growth of human tumour cells (NCI), 48 h
HOP-92 = tested on: HOP-92
DMS-273 = tested on: DMS-273
M14 = tested on: M14
UACC-257 = tested on: UACC-257
HOP-62 = tested on: HOP-62
OVCAR-3 = tested on: OVCAR-3
SR = tested on: SR
COLO 205 = tested on: COLO 205
SN12C = tested on: SN12C
Malme-3M = tested on: Malme-3M
RPMI-8226 = tested on: RPMI-8226
XF498 = tested on: XF498
SW-620 = tested on: SW-620
HL-60 = tested on: HL-60
SF-268 = tested on: SF-268
M19-MEL = tested on: M19-MEL
HCC 2998 = tested on: HCC 2998
SK-MEL-2 = tested on: SK-MEL-2
SK-OV-3 = tested on: SK-OV-3
CAKI-1 = tested on: CAKI-1
786-0 = tested on: 786-0
SF-539 = tested on: SF-539
NCI-H460 = tested on: NCI-H460
DLD-1 = tested on: DLD-1
SK-MEL-28 = tested on: SK-MEL-28
A549 = tested on: A549
RXF 393 = tested on: RXF 393
KM12 = tested on: KM12
HOP-18 = tested on: HOP-18
MOLT-4 = tested on: MOLT-4
TK-10 = tested on: TK-10
NCI-H226 = tested on: NCI-H226
RXF 631 = tested on: RXF 631
LXFL 529 = tested on: LXFL 529
OVCAR-4 = tested on: OVCAR-4
EKVX = tested on: EKVX
OVCAR-8 = tested on: OVCAR-8
K562 = tested on: K562
HT-29 = tested on: HT-29
SNB-75 = tested on: SNB-75
SNB-19 = tested on: SNB-19
CCRF-CEM = tested on: CCRF-CEM
IGROV-1 = tested on: IGROV-1
OVCAR-5 = tested on: OVCAR-5
SF-295 = tested on: SF-295
ACHN = tested on: ACHN
HCT-15 = tested on: HCT-15
KM-20L2 = tested on: KM-20L2
DMS-114 = tested on: DMS-114
SK-MEL-5 = tested on: SK-MEL-5
NCI-H23 = tested on: NCI-H23
HCT-116 = tested on: HCT-116
UO-31 = tested on: UO-31
UACC-62 = tested on: UACC-62
NCI-H522 = tested on: NCI-H522
LOX IMVI = tested on: LOX IMVI
U-251 = tested on: U-251
A498 = tested on: A498
SNB-78 = tested on: SNB-78

SMILES: COCNC(=NC#N)NCOC
- GI50 (HOP-92): > 100 µM (inactive)
- GI50 (DMS-273): > 47.1 µM (inactive)
- GI50 (M14): > 100 µM (inactive)
- GI50 (UACC-257): > 100 µM (inactive)
- GI50 (HOP-62): > 100 µM (inactive)
- GI50 (OVCAR-3): > 100 µM (inactive)
- GI50 (SR): 20.2 µM (inactive)
- GI50 (COLO 205): > 53.5 µM (inactive)
- GI50 (SN12C): > 100 µM (inactive)
- GI50 (Malme-3M): > 100 µM (inactive)
- GI50 (RPMI-8226): > 49.3 µM (inactive)
- GI50 (XF498): > 100 µM (inactive)
- GI50 (SW-620): > 42.9 µM (inactive)
- GI50 (HL-60): > 68.9 µM (inactive)
- GI50 (SF-268): > 100 µM (inactive)
- GI50 (M19-MEL): > 59.8 µM (inactive)
- GI50 (HCC 2998): > 100 µM (inactive)
- GI50 (SK-MEL-2): > 100 µM (inactive)
- GI50 (SK-OV-3): > 100 µM (inactive)
- GI50 (CAKI-1): > 100 µM (inactive)
- GI50 (786-0): > 47.2 µM (inactive)
- GI50 (SF-539): > 100 µM (inactive)
- GI50 (NCI-H460): > 100 µM (inactive)
- GI50 (DLD-1): > 62.8 µM (inactive)
- GI50 (SK-MEL-28): > 100 µM (inactive)
- GI50 (A549): > 71.9 µM (inactive)
- GI50 (RXF 393): > 42 µM (inactive)
- GI50 (KM12): > 52 µM (inactive)
- GI50 (HOP-18): > 100 µM (inactive)
- GI50 (MOLT-4): > 100 µM (inactive)
- GI50 (TK-10): > 100 µM (inactive)
- GI50 (NCI-H226): > 100 µM (inactive)
- GI50 (RXF 631): > 100 µM (inactive)
- GI50 (LXFL 529): > 100 µM (inactive)
- GI50 (OVCAR-4): > 100 µM (inactive)
- GI50 (EKVX): > 100 µM (inactive)
- GI50 (OVCAR-8): > 100 µM (inactive)
- GI50 (K562): > 64.6 µM (inactive)
- GI50 (HT-29): > 100 µM (inactive)
- GI50 (SNB-75): > 100 µM (inactive)
- GI50 (SNB-19): > 100 µM (inactive)
- GI50 (CCRF-CEM): > 100 µM (inactive)
- GI50 (IGROV-1): > 100 µM (inactive)
- GI50 (OVCAR-5): > 100 µM (inactive)
- GI50 (SF-295): > 100 µM (inactive)
- GI50 (ACHN): > 100 µM (inactive)
- GI50 (HCT-15): > 42.9 µM
- GI50 (KM-20L2): > 76 µM (inactive)
- GI50 (DMS-114): > 51.8 µM (inactive)
- GI50 (SK-MEL-5): > 100 µM (inactive)
- GI50 (NCI-H23): > 100 µM (inactive)
- GI50 (HCT-116): > 65.9 µM (inactive)
- GI50 (UO-31): > 100 µM (inactive)
- GI50 (UACC-62): > 100 µM (inactive)
- GI50 (NCI-H522): > 100 µM (inactive)
- GI50 (LOX IMVI): > 41.7 µM (inactive)
- GI50 (U-251): > 58.5 µM (inactive)
- GI50 (A498): > 100 µM (inactive)

SMILES: COc1cc(/C=C2\Cc3ccccc3C2=O)cc(OC)c1OC
- GI50 (HOP-92): 77.3 µM (inactive)
- GI50 (DMS-273): > 100 µM (inactive)
- GI50 (M14): > 100 µM (inactive)
- GI50 (UACC-257): > 100 µM (inactive)
- GI50 (HOP-62): > 100 µM (inactive)
- GI50 (OVCAR-3): > 100 µM (inactive)
- GI50 (COLO 205): > 100 µM (inactive)
- GI50 (SN12C): > 100 µM (inactive)
- GI50 (Malme-3M): > 100 µM (inactive)
- GI50 (RPMI-8226): > 100 µM (inactive)
- GI50 (XF498): > 100 µM (inactive)
- GI50 (SW-620): > 100 µM (inactive)
- GI50 (HL-60): > 100 µM (inactive)
- GI50 (SF-268): > 100 µM (inactive)
- GI50 (M19-MEL): > 100 µM (inactive)
- GI50 (SNB-78): > 100 µM (inactive)
- GI50 (HCC 2998): > 100 µM (inactive)
- GI50 (SK-MEL-2): > 100 µM (inactive)
- GI50 (SK-OV-3): > 100 µM (inactive)
- GI50 (CAKI-1): > 100 µM (inactive)
- GI50 (786-0): > 100 µM (inactive)
- GI50 (SF-539): > 100 µM (inactive)
- GI50 (NCI-H460): > 100 µM (inactive)
- GI50 (DLD-1): > 100 µM (inactive)
- GI50 (SK-MEL-28): > 100 µM (inactive)
- GI50 (A549): > 100 µM (inactive)
- GI50 (RXF 393): > 100 µM (inactive)
- GI50 (KM12): > 100 µM (inactive)
- GI50 (HOP-18): > 100 µM (inactive)
- GI50 (MOLT-4): > 100 µM (inactive)
- GI50 (TK-10): > 100 µM (inactive)
- GI50 (NCI-H226): > 100 µM (inactive)
- GI50 (RXF 631): > 100 µM (inactive)
- GI50 (LXFL 529): > 100 µM (inactive)
- GI50 (OVCAR-4): > 100 µM (inactive)
- GI50 (EKVX): > 100 µM (inactive)
- GI50 (OVCAR-8): > 100 µM (inactive)
- GI50 (K562): > 100 µM (inactive)
- GI50 (HT-29): > 100 µM (inactive)
- GI50 (SNB-75): 51.5 µM (inactive)
- GI50 (SNB-19): > 100 µM (inactive)
- GI50 (CCRF-CEM): > 100 µM (inactive)
- GI50 (OVCAR-5): > 100 µM (inactive)
- GI50 (SF-295): > 100 µM (inactive)
- GI50 (ACHN): > 100 µM (inactive)
- GI50 (HCT-15): > 100 µM
- GI50 (KM-20L2): > 100 µM (inactive)
- GI50 (DMS-114): > 100 µM (inactive)
- GI50 (SK-MEL-5): > 100 µM (inactive)
- GI50 (NCI-H23): > 100 µM (inactive)
- GI50 (HCT-116): > 100 µM (inactive)
- GI50 (UO-31): > 100 µM (inactive)
- GI50 (UACC-62): > 100 µM (inactive)
- GI50 (NCI-H522): > 100 µM (inactive)
- GI50 (LOX IMVI): > 100 µM (inactive)
- GI50 (U-251): > 100 µM (inactive)

SMILES: N#Cc1c(-c2ccc(Cl)c(Cl)c2)c(-c2ccc(Cl)c(Cl)c2)nn(CC(=O)O)c1=O
- GI50 (HOP-92): > 100 µM (inactive)
- GI50 (DMS-273): 44.7 µM (inactive)
- GI50 (M14): 99.8 µM (inactive)
- GI50 (UACC-257): 66.2 µM (inactive)
- GI50 (HOP-62): > 100 µM (inactive)
- GI50 (OVCAR-3): 27.2 µM (inactive)
- GI50 (COLO 205): 71.4 µM (inactive)
- GI50 (SN12C): 51.3 µM (inactive)
- GI50 (Malme-3M): > 100 µM (inactive)
- GI50 (RPMI-8226): 79.4 µM (inactive)
- GI50 (XF498): 27.9 µM (inactive)
- GI50 (SW-620): 53.6 µM (inactive)
- GI50 (HL-60): 43.1 µM (inactive)
- GI50 (M19-MEL): > 100 µM (inactive)
- GI50 (SNB-78): > 100 µM (inactive)
- GI50 (HCC 2998): 52.2 µM (inactive)
- GI50 (SK-MEL-2): > 100 µM (inactive)
- GI50 (SK-OV-3): > 100 µM (inactive)
- GI50 (CAKI-1): 38.5 µM (inactive)
- GI50 (786-0): > 100 µM (inactive)
- GI50 (NCI-H460): 36.9 µM (inactive)
- GI50 (DLD-1): 63.5 µM (inactive)
- GI50 (SK-MEL-28): 75.2 µM (inactive)
- GI50 (A549): 87.7 µM (inactive)
- GI50 (RXF 393): 20.1 µM (inactive)
- GI50 (KM12): 43.7 µM (inactive)
- GI50 (HOP-18): 64.3 µM (inactive)
- GI50 (MOLT-4): 68.4 µM (inactive)
- GI50 (TK-10): > 100 µM (inactive)
- GI50 (NCI-H226): 24 µM (inactive)
- GI50 (RXF 631): 64.9 µM (inactive)
- GI50 (LXFL 529): 72.4 µM (inactive)
- GI50 (OVCAR-4): > 100 µM (inactive)
- GI50 (EKVX): > 100 µM (inactive)
- GI50 (OVCAR-8): 57 µM (inactive)
- GI50 (K562): 43.9 µM (inactive)
- GI50 (HT-29): 33.3 µM (inactive)
- GI50 (SNB-75): 30.5 µM (inactive)
- GI50 (CCRF-CEM): 48.2 µM (inactive)
- GI50 (IGROV-1): > 100 µM (inactive)
- GI50 (OVCAR-5): > 100 µM (inactive)
- GI50 (SF-295): 48.6 µM (inactive)
- GI50 (ACHN): 61.5 µM (inactive)
- GI50 (HCT-15): 28.2 µM
- GI50 (KM-20L2): 24.2 µM (inactive)
- GI50 (SK-MEL-5): 34.7 µM (inactive)
- GI50 (HCT-116): 41.5 µM (inactive)
- GI50 (UO-31): 57.8 µM (inactive)
- GI50 (UACC-62): > 100 µM (inactive)
- GI50 (LOX IMVI): 41.3 µM (inactive)
- GI50 (U-251): 32.1 µM (inactive)

— ChEMBL document CHEMBL1201862, “PubChem BioAssay data set” (2004)
